Among the data in patent US4170649A, “1,4-Benzodiazepine derivatives, pharmaceutical compositions thereof, and process for their preparation” (Kali-Chemie Pharma GmbH, priority 1977, dated 1979) are LD50 and ED50 values, retold here.

A word on the LD50: it is the dose expected to kill half of the subjects tested. Broadly, the ED50 is the dose at which the effect has come halfway, by size or by number of responders.

The nature of data set [1]: Acute 7-day toxicity in mice (LD50). As to conditions: mouse, in vivo, white NMRI-mice not fed. How it is done: The acute 7-day-toxicity in white NMRI-mice is determined after administration of a single dose of the test compound per os or i.p. to the mice which had not been fed. The calculation of the LD50 is carried out by probitanalysis by means of electronic data processing (see L. Cavelli-Sforza, Gustav Fischer-Verlag, Stuttgart, (1964), Grundbegriffe der Biometrie, p. 153).

Data set [2] relates to pentetrazole-induced convulsions. The experiment in a line: Anti-convulsive activity against pentetrazole-induced spasms. Format: in vivo. The settings on record: Mus musculus; oral, mice; 100 mg/kg pentetrazole s.c. 60 minutes after application; observed 45 minutes; read-out: Inhibition of Pentetrazole-induced convulsions ED50. How it is done:
The protective effect of the test compounds against convulsion is determined after oral application to groups of six (6) mice each. 60 minutes after application of the test compounds, a doses of 100 mg/kg of pentetrazole is subcutaneously injected. The occurrance of clonic and tonic convulsions is observed during a total period of 45 minutes. the protective effect of the test compounds against convulsion is determined by comparison with simultaneously performed tests in control-animals. The effective dose ED50 is calculated from the probitlogarithmic dosage curves (according to a modified method disclosed by J. E. Blum et al, Arzneimittel-Forsch. 23, 377 (1973)).
The results which are obtained according to the above method, provide an indication of the anti-convulsive activity of the test compounds. In the pharmacological art, it is well-known that this anti-convulsive activity in animals is an important criterion for evaluating the clinical tranquilizer activity of compounds (see A. Suria and E. Costa, Journal de Pharmacologie, Suppl. No. 1, 5, 94 (1974) and G. Zbinden and L. O. Randall, Advances in Pharmacol. 5, 257, (1967)). The test results given in Table II show a clear superiority of the compounds according to the present invention as compared to chlordiazepoxide.

For data set [3], the system named is hexobarbital-induced sleep in mice. The experiment in a line: CNS-depressant properties: prolongation of hexobarbital-induced sleep in mice. Format: in vivo. The settings on record: Mus musculus, 0.5 h, oral, 64 mg/kg hexobarbital i.v. 30 minutes after application, 50% of animals with side-posture 4 times as long as control. As for the experimental part:
The test compounds are orally applied to mice. Additionally, a dose of 64 mg/kg of hexobarbital is injected, i.v., into the animals 30 minutes after application of the test compound. The point of time at which the animals lie down on their side and the duration of this side-posture are determined and are compared with the postural behavior of animals which are treated only with hexobarbital. The ED50 is defined as the dose which causes 50% of the animals to maintain the side-wise posture for a period of time which is 4 times as long as the period of time during which the control animals remain in their side-wise lying posture (see J. W. Kemp, M. Tannhaeuser and E. A. Swinyard, Arch. int. Pharmacodyn. 193 (1971), p. 37-47).

Data set [4] concerns isolation-induced aggressiveness in mice. The experiment in a line: Inhibition of isolation-induced aggressiveness in mice (anti-aggressive and anxiety-relieving activity). Format: in vivo. The settings on record: Mus musculus, oral, isolated mice, 50% reduction of aggressive behavior. As for the experimental part: Prior to carrying out the test, the mice are kept in strict isolation in single cages for a period of 4 weeks. After this period of isolation, mice which have been kept isolated spontaneously attack other mice which are introduced into their cage and had not been previously isolated. The test compounds are orally administered to the isolated mice and after a period of 30 minutes or 60 minutes after application, the dose which leads to a 50% reduction of the aggressive behavior is determined (according to a modified method described by Weischer and Opitz, Arch. int. Pharmacodyn. 195, 252 (1972)). The results which are obtained in this test are a valid indication of the activity of the tested compounds in relieving anxiety and stress-induced tensions.

Setting [5] is: ip, single dose i.p., read-out: LD50 i.p.
The mark [6] stands for this setting: po, single dose per os, read-out: LD50 p.o.
The mark [7] stands for this setting: 0.5 h, 30 minutes after application, read-out: Inhibition of isolation-induced aggressiveness in mice ED50 (30').
Setting [8] is: 1 h, 60 minutes after application, read-out: Inhibition of isolation-induced aggressiveness in mice ED50 (60').

Like-named read-outs stand apart in the source and are kept apart here.

With `CN1C(=CC(N)=O)CN=C(c2ccccc2)c2cc(Cl)ccc21` [Compound No. 1, 7-chloro-1-methyl-2-carbamoylmethylene-5-phenyl-1,3-dihydro-2H-1,4-benzodiazepine], the median lethal dose (LD50) at 168 h in data set [1] (setting [5]) is 288 mg/kg; in data set [1] (setting [6]), more than 1470 mg/kg. In addition, the ED50 in data set [2] was found to be 2.4 mg/kg; in data set [3] it was 3.2 mg/kg; in data set [4] (setting [7]), 12.2 mg/kg; in data set [4] (setting [8]), 9.6 mg/kg.

Regarding `CN1C(=CC(N)=O)CN=C(c2ccccc2Cl)c2cc(Cl)ccc21` [Compound No. 2, 7-chloro-1-methyl-2-carbamoylmethylene-5-(2'-chlorophenyl)-1,3-dihydro-2H-1,4-benzodiazepine], the LD50 at 168 h was 410 mg/kg in data set [1] (setting [5]) and more than 1000 mg/kg in data set [1] (setting [6]). Also, the median effective dose (ED50) in data set [2] turned out to be 0.1 mg/kg; in data set [3], 5 mg/kg; in data set [4] (setting [7]), 2.2 mg/kg; in data set [4] (setting [8]), 3.4 mg/kg.

As to `CN1C(=CC(N)=O)CN=C(c2ccccc2F)c2cc(Cl)ccc21` [Compound No. 3, 7-chloro-1-methyl-2-carbamoylmethylene-5-(2'-fluorophenyl)-1,3-dihydro-2H-1,4-benzodiazepine], the LD50 at 168 h was 572 mg/kg in data set [1] (setting [5]) and more than 1470 mg/kg in data set [1] (setting [6]). Besides, the ED50 in data set [2] came out at 0.4 mg/kg; in data set [3], 1.6 mg/kg; in data set [4] (setting [7]) it was 2.1 mg/kg; in data set [4] (setting [8]), 3.9 mg/kg.

For the compound `CN1C(=CC(N)=O)CN=C(c2ccccc2C(F)(F)F)c2cc(Cl)ccc21` [Compound No. 4, 7-chloro-1-methyl-2-carbamoylmethylene-5-(2'-trifluoromethylphenyl)-1,3-dihydro-2H-1,4-benzodiazepine], the LD50 at 168 h in data set [1] (setting [5]) was 287 mg/kg; in data set [1] (setting [6]), more than 1470 mg/kg. Moreover, the ED50 in data set [2] turned out to be 0.3 mg/kg; in data set [3], 3.1 mg/kg; in data set [4] (setting [7]), 31.1 mg/kg; in data set [4] (setting [8]), 31.1 mg/kg.

Regarding `CN1C(=CC(N)=O)CN=C(c2ccccc2Cl)c2cc(Br)ccc21` [Compound No. 5, 7-bromo-1-methyl-2-carbamoylmethylene-5-(2'-chlorophenyl)-1,3-dihydro-2H-1,4-benzodiazepine], the LD50 at 168 h in data set [1] (setting [5]) is more than 1600 mg/kg; in data set [1] (setting [6]), more than 1470 mg/kg. Moreover, the ED50 in data set [2] turned out to be 0.3 mg/kg; in data set [3], 1.3 mg/kg; in data set [4] (setting [7]) it was 5.4 mg/kg; in data set [4] (setting [8]), 4.6 mg/kg.

Regarding `CN1C(=CC(N)=O)CN=C(c2ccccc2F)c2cc(Br)ccc21` [Compound No. 6, 7-bromo-1-methyl-2-carbamoylmethylene-5-(2'-fluorophenyl)-1,3-dihydro-2H-1,4-benzodiazepine], the median lethal dose (LD50) at 168 h was 574 mg/kg in data set [1] (setting [5]) and more than 1470 mg/kg in data set [1] (setting [6]). The 50% effective dose (ED50) in data set [2] is 0.4 mg/kg; in data set [3], 2.6 mg/kg; in data set [4] (setting [7]) it was 4.8 mg/kg; in data set [4] (setting [8]), 5.7 mg/kg.

With `CN1C(=CC(N)=O)CN=C(c2ccccc2Cl)c2cc([N+](=O)[O-])ccc21` [Compound No. 7, 7-nitro-1-methyl-2-carbamoylmethylene-5-(2'-chlorophenyl)-1,3-dihydro-2H-1,4-benzodiazepine], in data set [1] (setting [6]), the 50% lethal dose (LD50) at 168 h was more than 1470 mg/kg. The ED50 stood at 1 mg/kg in data set [2] and 2.5 mg/kg in data set [3].

As to `CNC1=Nc2ccc(Cl)cc2C(c2ccccc2)=[N+]([O-])C1` [comparison, 7-chloro-2-methylamino-5-phenyl-3H-1,4-benzodiazepine-4-oxide, reference compound], the median lethal dose (LD50) at 168 h in data set [1] (setting [5]) came to 300 mg/kg; in data set [1] (setting [6]) it was 903 mg/kg. Moreover, the ED50 in data set [2] came to 5 mg/kg; in data set [3], 6 mg/kg; in data set [4] (setting [7]), 60 mg/kg; in data set [4] (setting [8]), 47 mg/kg.
